The text below walks through data of PMC9757750 (Science Advances, 2022).

The target of the assay is LegA15 (Legionella pneumophila, UniProt Q5ZSR1). In words: biochemical.
LegA15, sequence (Q5ZSR1 1-471): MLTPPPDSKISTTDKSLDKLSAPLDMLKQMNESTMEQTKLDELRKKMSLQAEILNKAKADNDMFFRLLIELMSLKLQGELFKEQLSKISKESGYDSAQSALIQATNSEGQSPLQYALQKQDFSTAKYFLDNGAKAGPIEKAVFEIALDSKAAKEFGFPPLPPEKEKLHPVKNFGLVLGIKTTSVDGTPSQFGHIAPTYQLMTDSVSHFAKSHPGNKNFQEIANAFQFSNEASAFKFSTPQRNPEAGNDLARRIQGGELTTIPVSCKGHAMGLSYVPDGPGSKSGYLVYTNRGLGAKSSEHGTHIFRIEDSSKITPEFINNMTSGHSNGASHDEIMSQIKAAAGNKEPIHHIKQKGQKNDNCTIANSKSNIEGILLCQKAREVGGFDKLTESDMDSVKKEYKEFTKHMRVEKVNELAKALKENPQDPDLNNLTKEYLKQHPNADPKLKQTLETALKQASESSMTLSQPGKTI

`Nc1nc2c(ncn2[C@@H]2O[C@H](COP(=O)(O)OP(=O)(O)O)[C@@H](O)[C@H]2O)c(=O)[nH]1` [GDP] yielded an equilibrium dissociation constant (Kd) of 20.5 µM.
Then `Nc1nc2c(ncn2[C@@H]2O[C@H](COP(=O)(O)OP(=O)(O)OP(=O)(O)O)[C@@H](O)[C@H]2O)c(=O)[nH]1` [GTP], with 1.38 µM.

One may read the Kd as the constant that tells how readily two partners part at equilibrium. Read a high Kd as weaker binding.
